Measured values taken from PubChem BioAssay AID651630 (Sanford-Burnham Center for Chemical Genomics, 2012).
Calls of active or inactive are those of the source.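 The calls were made as follows: active = lipid-stain IC50 at or below a set limit, with nuclear-stain toxicity IC50 at least five times higher; inactive = the rest.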

Experiments:
DAPI = assay: TAG lipid buildup inhibition with viability readout – cell-based, panel, Nile Red and DAPI fluorescence, H9c2, dose response (AID 651630); settings: H9c2 cells, DAPI nuclear fluorescence (cytotoxicity counter-readout), oleic acid;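 also: cells exposed to compound overnight before fixation and staining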
TAG = assay: as above; settings: H9c2 cells, Nile Red TAG fluorescence, oleic acid

Structure (SMILES) | IC50 cytotoxicity (DAPI nuclear signal decrease) (DAPI; run 1) [µM] | IC50 cytotoxicity (DAPI nuclear signal decrease) (DAPI; run 2) [µM] | IC50 (TAG; mean of runs) | IC50 (TAG; run 1) [µM] | IC50 (TAG; run 2) [µM] | IC50 cytotoxicity (DAPI nuclear signal decrease) (DAPI; mean of runs)
O=C1Nc2ccc(Br)cc2/C1=N\N=C\C1=C(N2CCOCC2)C(=C/c2ccccc2)/CC1 | > 25 | > 25 | 0.891 µM | 0.828 | 0.954 | 
Clc1cccc(Nc2nc(-c3ccncc3)cs2)c1 | > 25 | > 25 | > 25 µM (inactive) | > 25 | > 25 | > 25 µM (inactive)
Cc1ccc2c(=O)n3c(nc2c1)C(Cc1ccc(O)cc1)NC(=O)c1cc2ccccc2cc1-3 (configuration not stated) | > 25 | > 25 | > 25 µM (inactive) | > 25 | > 25 | > 25 µM (inactive)
COCCOC(=O)c1[nH]c2c(c1C)C(=O)CC(c1ccccc1)C2 (configuration not stated) | > 25 | > 25 | > 25 µM (inactive) | > 25 | > 25 | > 25 µM (inactive)
O=C(Nc1ccc(-c2csc(Nc3ccc(Cl)cc3)n2)cc1)c1cc([N+](=O)[O-])cc(C(F)(F)F)c1 | > 25 | > 25 | 8.54 µM | 6.55 | 10.5 | > 25 µM (inactive)
COc1ccc(C(=O)Nc2sc3c(c2C(=O)NCc2ccco2)CCCC3)cc1OC | > 25 | > 25 | > 25 µM (inactive) | > 25 | > 25 | > 25 µM (inactive)
CCCCOc1ccccc1NC(=O)Cn1c(-c2nonc2N)nc2ccccc21 | > 25 | > 25 | > 25 µM (inactive) | > 25 | > 25 | > 25 µM (inactive)
Cc1cc(N/N=C/c2cccc(Cl)c2)nc(-n2nc(C)cc2C)n1 | > 25 | > 25 | > 25 µM (inactive) | > 25 | > 25 | > 25 µM (inactive)
COc1ccc(OC)c(Nc2nc(-c3sc(NC(=O)CC(C)C)nc3C)cs2)c1 | > 25 | > 25 | 14.1 µM | 12.9 | 15.3 | > 25 µM (inactive)
CCN(CC(=O)Nc1ccc(C(=O)Nc2ccc(OC)cc2)cc1)Cc1nc2ccccc2c(=O)[nH]1 | > 25 | > 25 | > 25 µM (inactive) | > 25 | > 25 | > 25 µM (inactive)
O=C(CCl)Nc1cc2[nH]c(=O)[nH]c2cc1Br | 11.7 | 18.3 | 9.37 µM | 5.97 | 12.8 | 15 µM (inactive)
CCOC(=O)[C@@H]1[C@H]2COc3ccc(Br)cc3[C@@H]2N2C(=O)N(c3ccc(C(F)(F)F)cc3)C(=O)[C@@]12C | > 25 | > 25 | 3.24 µM | 2.27 | 4.21 | 
CCc1nn2c(N3CCOCC3)cc(C)nc2c1-c1ccc(F)cc1 | > 25 | > 25 |  | > 25 | < 0.78 | > 25 µM (inactive)
CC(C)N(C(=O)[C@H]1C[C@H](CC(=O)NCc2cccc(C(F)(F)F)c2)C(=O)N2CCc3c([nH]c4ccc(Cl)cc34)[C@]12C)C(C)C | > 25 | > 25 | 10.6 µM | 9.86 | 11.4 | > 25 µM (inactive)
Cc1ccc2c(c1)N(C(=O)CCC(=O)NCCCN1CCC(Cc3ccccc3)CC1)CCO2 | 20.2 | 24.3 | 18.7 µM (inactive) | 19.5 | 17.9 | 22.3 µM (inactive)
Cc1c(C(=O)OCC(C)C)[nH]c2c1C(=O)CC(c1cccs1)C2 (configuration not stated) | > 25 | > 25 | > 25 µM (inactive) | > 25 | > 25 | > 25 µM (inactive)
CCc1ccc(/C=N/NC(=O)c2cc(C3CC3)nc3ccc(Br)cc23)s1 | > 25 | > 25 | > 25 µM (inactive) | > 25 | > 25 | > 25 µM (inactive)

Structure (SMILES) | IC50 cytotoxicity (DAPI nuclear signal decrease) (DAPI; run 1) [µM] | IC50 cytotoxicity (DAPI nuclear signal decrease) (DAPI; run 2) [µM] | IC50 (TAG; mean of runs) | IC50 (TAG; run 1) [µM] | IC50 (TAG; run 2) [µM] | IC50 cytotoxicity (DAPI nuclear signal decrease) (DAPI; mean of runs)
C[C@H](O)C#Cc1ccc2c(c1)O[C@@H](CN(C)Cc1ccc(-c3ccccc3)cc1)[C@H](C)CN([C@@H](C)CO)S2(=O)=O | > 25 | > 25 |  | > 25 | 17.9 | > 25 µM (inactive)
Cc1ccc(CN(C(=O)c2csnn2)C(C(=O)NC2CCCC2)c2ccc(C)o2)cc1 (configuration not stated) | > 25 | > 25 | > 25 µM (inactive) | > 25 | > 25 | > 25 µM (inactive)
O=c1cc(-c2ccccc2)[nH]c2ccccc12 | 20.5 | > 25 | 3.61 µM | 2.45 | 4.77 | 
CSc1cc(-c2ccccc2)n(Cc2c(Cl)cccc2Cl)c(=O)c1C#N | > 25 | > 25 |  | 17.9 | > 25 | > 25 µM (inactive)
COC(=O)c1c(NC(NC(=O)C(C)(C)C)C(Cl)(Cl)Cl)sc2c1CCC2 (configuration not stated) | > 25 | > 25 | 13.3 µM | 13.1 | 13.5 | > 25 µM (inactive)
Cc1noc(C)c1-c1ccc2ncnc(NCC3CCCCN3C)c2c1 (configuration not stated) | > 25 | > 25 | > 25 µM (inactive) | > 25 | > 25 | > 25 µM (inactive)
COC(=O)C=C1CCC2C3CCC4=CC(=O)C(Br)CC4(C)C3C(=O)CC12C (configuration not stated) | > 25 | 22.3 | 9.84 µM | 9.51 | 10.2 | 
COc1ccc2[nH]c(C)c(CCNCc3cn(C)c4ccccc34)c2c1 | > 25 | > 25 | 10.7 µM | 10.2 | 11.2 | > 25 µM (inactive)
O=C1C=CC(O)C2(CO)OC12 (configuration not stated) | > 25 | > 25 |  | 14.4 | > 25 | > 25 µM (inactive)
Cc1c(C(=O)N2CC3(CC(c4cccc(NC(=O)CC(c5ccccc5)c5ccccc5)c4)=NO3)C[C@@H]2C(N)=O)cc([N+](=O)[O-])cc1[N+](=O)[O-] (some centres not stated) | > 25 | > 25 | 12.2 µM | 11.8 | 12.6 | > 25 µM (inactive)
Cc1ccc2c(c1)-c1c(cnn1CC(=O)Nc1ccccc1N1CCN(C)CC1)CO2 | > 25 | > 25 |  | 24.2 | > 25 | > 25 µM (inactive)
CCCCCc1cc(=O)oc2c(C(CCN(CC)CC)c3ccc(N(C)C)cc3)c(OC)cc(OC)c12 (configuration not stated) | > 25 | > 25 |  | > 25 | 17.5 | > 25 µM (inactive)
COc1cccc2sc(Nc3nc(-c4cc5ccccc5oc4=O)cs3)nc12 | > 25 | > 25 | 8.35 µM | 7.33 | 9.37 | > 25 µM (inactive)
COc1cc(NC(=O)c2cc3cccc(OC)c3o2)cc(C(=O)Nc2cccc(C(F)(F)F)c2)c1 | > 25 | > 25 | 12 µM | 9.27 | 14.7 | > 25 µM (inactive)
CCCCCc1cc(=O)oc2c(C(CCN(CC)CC)c3ccc(OC)cc3)c(OC)cc(OC)c12 (configuration not stated) | > 25 | > 25 | > 25 µM (inactive) | > 25 | > 25 | > 25 µM (inactive)
Nc1ccc(C#Cc2c(-c3ccsc3)oc3ccc(N4CCOCC4)cc23)cc1 | > 25 | > 25 | 11.4 µM | 10.8 | 11.9 | > 25 µM (inactive)
COc1cc(CC(=O)OCC(=O)c2ccc3c(c2)OCCO3)cc(OC)c1OC | 2.3 | > 25 |  | 17.1 | > 25 | 
